In series [1] the test system is brain 4-aminobutyric acid levels. The note with it: transformation catalyzed by mitochondrial monoamine oxidase; cited from earlier work.
In series [2] the test system is hamster flank organ. The note with it: topical application; cited from earlier work.
Series [3] relates to flank organ hair. Description: Hamster flank organ hair growth inhibition by topical inhibitor (hair mass, treated organ vs vehicle-treated organ). It counts as in vivo, male intact Golden Syrian hamsters. To be noted: for Flank Organ Hair Mass, Treated: ± SE; for Hair Growth Inhibition: percent decrease vs vehicle-treated organ. The method, then:
A series of compositions was prepared each containing a given concentration of specified inhibitor in the foregoing vehicle, as listed in Table 1 below.
Four groups (eight animals in each group) of male intact Golden Syrian hamsters were provided. These animals were considered acceptable models for human beard hair growth in that they display oval shaped flank organs, one on each side, each about 8 mm in major diameter, which grow thick black and coarse hair similar to human beard hair. These organs produce hair in response to androgens in the hamster. The flank organs of each hamster were depilated by applying a thioglycolate-based chemical depilatory (Surgex), and to one organ of each animal was applied 10 μL. of vehicle alone once a day, while to the other organ of each animal was applied an equal amount of vehicle containing inhibitor. After 14 such applications (Mon.-Fri.) over a period of 18 days, the flank organs were shaved and the amount of recovered hair (hair mass) from each was weighed. The extent of reduction in hair growth by the inhibitor was expressed as the percent decrease in hair mass on the organ treated with inhibitor as compared to the organ treated with vehicle alone. As a control, one group of eight animals had both flank organs of each animal treated with vehicle alone.
The same procedure was followed as in Example 1 except that the vehicle used for the compositions consisted of water alone.
The same test procedure was followed except that the compositions were applied to the hamster flank organs every day for fifteen successive days, at which time hair mass was measured; the results were as follows: […]

For series [4], the system named is sebum excretion. To be noted: topical, cited from earlier work.
The subject of series [5] is sebaceous glands. To be noted: cited from earlier work.
Series [6] concerns hair growth. To be noted: intact males; Table 3, Group VI vs. Group X; cited from earlier work.
[7] abbreviates: Table 1, 5% of each inhibitor in water/ethanol/glycol vehicle, 10 μL once a day, 14 applications over 18 days.
Setting [8] is: Table 1, 5% of each inhibitor in water/ethanol/glycol vehicle, 14 applications over 18 days.
Setting [9] is: Table 3, 5% of each inhibitor, Example 1 vehicle, every day for fifteen successive days.

SMILES strings stand for the structures. Where two headings read alike, the source gives them in different places.

Regarding `C#CC(N)CCCN` (stereo not shown) [5-hexyne-1,4-diamine], the “brain 4-aminobutyric acid levels” value in series [1] was “increases in brain 4-aminobutyric acid levels”.
As for `CCC[C@]1(O)CC[C@H]2[C@@H]3CCC4=CC(=O)CC[C@]4(C)[C@H]3CC[C@@]21C` [17β-hydroxy-17α-propylandrost-4-en-3-one], in series [2], the “reduction in hair growth of the hamster flank organ” value was “substantial reduction in hair growth” and the “size of the flank organ” value is “reduction in the size of the flank organ”.
For the molecule `CCC(=NNC(=N)N)C(CC)=NNC(=N)N` [DEGBG, diethylglyoxal bis(guanylhydrazone)], in series [3] (Table 2, 2.5% inhibitor, vehicle water alone, 14 applications over 18 days), the “Flank Organ Hair Mass, Treated” value is on record as 2.62 ± .15 mg. Moreover, in series [3] (Table 2, 2.5% inhibitor, vehicle water alone), the “Hair Growth Inhibition” value worked out at 15.9 ± 5.2%.
In the case of `NCCC[C@](N)(C(=O)O)C(F)F` [DFMO, 2-(difluoromethyl)-ornithine], the “Flank Organ Hair Mass, Treated” value in series [3] (setting [7]) was 0.99 ± .08 mg; in series [3] (Table 2, 5% inhibitor, vehicle water alone, 14 applications over 18 days), 2.70 ± .22 mg; in series [3] (setting [9]), 0.49 ± .14 mg. Moreover, the “Hair Growth Inhibition” value amounted to 64.3 ± 3.7% in series [3] (setting [8]); 18.8 ± 3.7% in series [3] (Table 2, 5% inhibitor, vehicle water alone); 44.4 ± 18.2% in series [3] (setting [9]).
As for `CN(CCON)C[C@H]1O[C@@H](n2cnc3c(N)ncnc32)[C@H](O)[C@@H]1O` [MAOEA, 5'-deoxy-5'-[N-methyl-N-(2-[aminooxy]ethyl)] aminoadenosine], in series [3] (setting [7]), the “Flank Organ Hair Mass, Treated” value is listed as 2.03 ± .18 mg. In addition, the “Hair Growth Inhibition” value in series [3] (setting [8]) was 29.4 ± 5.9%.
Regarding `CC(C=NNC(=N)N)=NNC(=N)N` [MGBG, methylglyoxal bis(guanylhydrazone)], the results for the “Flank Organ Hair Mass, Treated” value in series [3] (setting [7]) and in series [3] (setting [9]) were 1.54 ± .22 mg and 0.56 ± .11 mg, respectively. The “Hair Growth Inhibition” value in series [3] (setting [8]) is reported as 40.3 ± 7.4%; in series [3] (setting [9]) it was 42.3 ± 8.2%.
`CC(=O)[C@H]1CC[C@H]2[C@@H]3CCC4=CC(=O)CC[C@]4(C)[C@H]3CC[C@]12C` [progesterone]: the “reducing sebum excretion rates” value in series [4] (females) is “effective in reducing sebum excretion rates in females”; in series [4] (males) it was “without effect in males”. Moreover, the effectiveness of progesterone result in series [5] (female) was “effective in the female”; in series [5] (male) it was “not in the male”. Further, the “effect on inhibition of hair growth” value in series [6] is on record as “doubtful”.

The record behind these values is patent publication US5132293A, “Enzymic alteration of hair growth” (priority 1991, dated 1992).
